# Where a SMILES comes first, the peptide text is derived from it. The star is where a group is joined. Tos = Cc1ccc(S(=O)(=O)*)cc1; tBu = CC(C)(C)*
# Test system: not given
# Experiment: not given
# Details: not given
row,Compound,melting point [°C]
1,"CC(C)OC(=O)[C@H](Cc1ccc(O)cc1)NC(=O)[C@@H]1CCCN1S(=O)(=O)c1cn(C)cn1 [Example 226, N-(1-Methylimidazol-4-sulfonyl)-L-prolyl-(4-hydroxyl)-L-phenylalanine isopropyl ester]",159 to 162
2,"Cc1ccc(S(=O)(=O)N[C@@H](CCC(=O)O)C(=O)N[C@@H](Cc2ccc(O)cc2)C(=O)O)cc1 [Example 30, N-(Toluene-4-sulfonyl)-L-glutamyl-L-tyrosine] (Tos-Glu-Tyr-OH)",173 to 175

# Continued, values first:
row,melting point [°C],Compound
1,106 to 110,"Cc1ccc(S(=O)(=O)N2CCC[C@H]2C(=O)N[C@@H](Cc2ccc(OCCN(Cc3ccccc3)Cc3ccccc3)cc2)C(=O)O)cc1 [Example 45, N-(Toluene-4-sulfonyl)-L-prolyl-L-O-[2-(dibenzylamino)ethyl]-tyrosine]"
2,160.5 to 162.5,"Cc1ccc(S(=O)(=O)N2CCC[C@H]2C(=O)N[C@@H](C)C(=O)O)cc1 [Example 16, N-(Toluene-4-sulfonyl)-L-prolyl-L-alanine] (Tos-Pro-Ala-OH)"
3,145 to 150,"Cc1ccc(S(=O)(=O)N2CCC[C@H]2C(=O)N[C@@H](Cc2ccc(C(=O)N[C@@H]3Cc4ccccc4C=N3)cc2)C(=O)O)cc1 [Example 52, N-(Toluene-4-sulfonyl)-L-prolyl-L-4[(3S)-3,4-dihydro-isoquinolin-3-yl-aminocarbonyl]-phenylalanine]"
4,174 to 176,"Cc1ccc(S(=O)(=O)N2CCC[C@H]2C(=O)N[C@@H](CC(=O)O)C(=O)O)cc1 [Example 19, N-(Toluene-4-sulfonyl)-L-prolyl-L-aspartic acid] (Tos-Pro-Asp-OH)"
5,163 to 165,"Cc1ccc(S(=O)(=O)N2CCC[C@H]2C(=O)N[C@@H](Cc2ccc(NC(=O)Nc3ccc(C#N)cc3)cc2)C(=O)O)cc1 [Example 49, N-(Toluene-4-sulfonyl)-L-prolyl-L-4-[3-(4-cyanophenyl)-ureido]-phenylalanine]"

# Test system: Experimental Autoimmune (or Allergic) Encephalomyelitis
# Experiment: Experimental Autoimmune Encephalomyelitis (EAE) model, motor impairment
# Type: in vivo
# Details: rats or guinea pigs; treatment from Day 8, bid for five days, SC, PO or IP
row,Compound,"active in EAE in vivo assay (delayed the onset of symptoms, e.g. clinical scores no greater than 2 or slowed body weight loss as compared to the control)"
1,"Cc1ccc(S(=O)(=O)N2CCC[C@H]2C(=O)N[C@@H](Cc2ccc(OC(C)(C)C)cc2)C(=O)O)cc1 [Example 10, N-(Toluene-4-sulfonyl)-L-prolyl-4-(O-tert-butyl)-L-tyrosine] (Tos-Pro-Tyr(tBu)-OH)",active
2,"N-(Toluene-4-sulfonyl)-L-(5,5-dimethyl) thiaprolyl-L-(N-benzyl)-histidine [Example 27]",active

# — patent publication US6583139B1, “Compounds which inhibit leukocyte adhesion mediated by VLA-4” (priority 1997, dated 2003)
